# According to patent US11524966B1 (Valo Early Discovery, Inc., priority 2017, dated 2022):
# Target: T1, USP28 (USP28-5(1-1077)-TEV-6*His; LifeSensors) (Homo sapiens, UniProt Q96RU2)
# T1 construct: construct USP28 (USP28-5(1-1077)-TEV-6*His; LifeSensors); TEV cleavage site (C); 6xHis (C); purchased LifeSensors
# T1 sequence (Q96RU2 1-1077): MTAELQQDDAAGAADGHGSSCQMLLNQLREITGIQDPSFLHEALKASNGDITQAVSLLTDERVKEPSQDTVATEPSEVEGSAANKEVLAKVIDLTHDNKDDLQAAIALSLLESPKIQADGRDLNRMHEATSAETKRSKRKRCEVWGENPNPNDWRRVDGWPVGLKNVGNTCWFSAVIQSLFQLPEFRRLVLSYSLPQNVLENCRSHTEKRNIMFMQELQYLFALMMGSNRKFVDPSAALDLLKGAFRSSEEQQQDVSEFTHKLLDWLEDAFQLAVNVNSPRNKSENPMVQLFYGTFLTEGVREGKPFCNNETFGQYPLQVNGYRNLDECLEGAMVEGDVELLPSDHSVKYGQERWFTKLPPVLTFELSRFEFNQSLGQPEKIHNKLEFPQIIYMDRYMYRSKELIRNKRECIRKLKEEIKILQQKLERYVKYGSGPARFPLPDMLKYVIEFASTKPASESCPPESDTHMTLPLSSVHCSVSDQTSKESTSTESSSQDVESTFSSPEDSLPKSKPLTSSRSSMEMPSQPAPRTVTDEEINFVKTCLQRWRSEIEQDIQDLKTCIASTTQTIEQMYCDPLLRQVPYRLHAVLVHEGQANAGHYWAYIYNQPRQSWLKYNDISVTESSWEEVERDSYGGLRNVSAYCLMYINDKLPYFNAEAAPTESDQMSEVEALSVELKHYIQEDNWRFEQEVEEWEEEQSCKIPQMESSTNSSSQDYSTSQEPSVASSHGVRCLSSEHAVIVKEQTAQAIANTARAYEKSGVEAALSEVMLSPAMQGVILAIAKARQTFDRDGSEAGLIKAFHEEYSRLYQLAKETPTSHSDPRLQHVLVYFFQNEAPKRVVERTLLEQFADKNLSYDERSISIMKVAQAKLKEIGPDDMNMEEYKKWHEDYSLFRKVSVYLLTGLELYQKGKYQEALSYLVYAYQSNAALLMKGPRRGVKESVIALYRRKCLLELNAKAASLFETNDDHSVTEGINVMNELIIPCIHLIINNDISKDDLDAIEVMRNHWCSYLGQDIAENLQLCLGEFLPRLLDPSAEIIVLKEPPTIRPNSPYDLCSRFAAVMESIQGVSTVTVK
# Test: Ubiquitin-Rhodamine 110 Assay for USP28 Activity, Example A-1(b)
# Format: biochemical
# Conditions: Ub-Rh110 assay, Example A-1(b)
# Outline: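 Single-point screening used 10 μM compound with 90 min room-temperature incubation; follow-up dose-responses (25 μM top, 3-fold) used 75 pM USP28 1-1077 construct, 30 min compound preincubation, 25 nM Ub-Rh110, 20 min reaction, citric acid quench. Rh110 fluorescence normalised to no-enzyme and DMSO controls; IC50 from 4-parameter logistic fit.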
row,Compound,USP28 A-1(b) IC50 range
1,"Cc1ccc2c(N)c(C(=O)N[C@H]3COc4cc(N5CCN[C@@H](C)[C@H]5C)ccc4C3)sc2n1 (single isomer, unassigned) [Example 1-7]",++++ (0.001-0.05 μM)

# Same assay, conditions: Ubiquitin-Rhodamine 110 assay, format Example A-1(b)
row,Compound,USP28 A-1(b) IC50 range
1,"Cc1nc2sc(C(=O)N[C@H]3CCc4cc(N5CCNCC5)ccc4C3)c(N)c2s1 (single isomer, unassigned) [Example 11-33]",+ (>2 μM)
2,"Cc1nc2sc(C(=O)N[C@@H]3CCc4cc(N5CC6CCC(C5)N6)ccc4C3)c(N)c2s1 (single isomer, unassigned) [Example 12-2]",++ (0.2-2 μM)
3,"Cc1ccc2c(N)c(C(=O)N[C@@H]3CCc4c(ccc(N5CC6CCC(C5)N6)c4C#N)C3)sc2n1 (single isomer, unassigned) [Example 14-1]",++++ (0.001-0.05 μM)
4,"Cc1ccc2c(N)c(C(=O)N[C@H]3CCc4c(ccc(N5CC6CCC(C5)N6)c4C#N)C3)sc2n1 (single isomer, unassigned) [Example 14-2]",++ (0.2-2 μM)
5,"Cc1ccc2c(N)c(C(=O)N[C@@H]3CCc4cc(N5CC6CCC(C5)N6)c(C#N)cc4C3)sc2n1 (single isomer, unassigned) [Example 14-3]",++ (0.2-2 μM)
6,"Cc1ccc2c(N)c(C(=O)N[C@H]3CCc4cc(N5CC6CCC(C5)N6)c(C#N)cc4C3)sc2n1 (single isomer, unassigned) [Example 14-4]",++++ (0.001-0.05 μM)
7,"Cc1cnc2c(N)c(C(=O)N[C@@H]3CCc4c(ccc(N5CC6CCC(C5)N6)c4C#N)C3)sc2n1 (single isomer, unassigned) [Example 14-5]",+++ (0.05-0.2 μM)
8,"Cc1cnc2c(N)c(C(=O)N[C@H]3CCc4c(ccc(N5CC6CCC(C5)N6)c4C#N)C3)sc2n1 (single isomer, unassigned) [Example 14-6]",+ (>2 μM)
9,"Cc1cnc2c(N)c(C(=O)N[C@@H]3CCc4cc(N5CC6CCC(C5)N6)c(C#N)cc4C3)sc2n1 (single isomer, unassigned) [Example 14-7]",++ (0.2-2 μM)
10,"Cc1cnc2c(N)c(C(=O)N[C@H]3CCc4cc(N5CC6CCC(C5)N6)c(C#N)cc4C3)sc2n1 (single isomer, unassigned) [Example 14-8]",++++ (0.001-0.05 μM)
